BigSolDB 2.1

O=C(O)[C@@H](O)CCc1ccccc1
solubility (mole fraction)
Conditions	in ethyl acetate	in toluene	in water
278.2 K	0.107	–	–
283.2 K	0.117	–	0.00071
288.2 K	0.128	0.0013	0.00094
293.2 K	0.14	0.00169	0.00107
298.2 K	0.15	0.00235	0.00137
303.2 K	0.16	0.00298	0.00172
308.2 K	0.174	0.00407	0.00229
313.2 K	0.182	0.00555	0.00311
318.2 K	–	0.00729	0.00406
323.2 K	–	0.00996	0.00701
328.2 K	–	0.0127	0.0142
333.2 K	–	0.0173	0.044
338.2 K	–	0.0238	–
343.2 K	–	0.0341	–
